Experimental data from ChEMBL document CHEMBL5550160, “Leveraging a rationally designed veliparib-based anilide eliciting anti-leukemic effects for the design of pH-responsive polymer nanoformulation” (Eur J Med Chem, 2024).
Active and inactive are the calls of the source. The calls are words filed in the database; no cut-off is given here.

How the values were obtained:
MDA-MB-231 = experiment: Antiproliferative activity against human MDA-MB-231 cells assessed as inhibition of cell growth by MTT assay; format: functional, cell-based
[1] = biological target: T1, Histone deacetylase 8 (Homo sapiens) (UniProt Q9BY41); experiment: Inhibition of HDAC8 (unknown origin) assessed as residual activity at 5.08 x 10^-10M (reference value: 100%); settings: dose 5.08 10^-10M
T1 sequence (whole entry): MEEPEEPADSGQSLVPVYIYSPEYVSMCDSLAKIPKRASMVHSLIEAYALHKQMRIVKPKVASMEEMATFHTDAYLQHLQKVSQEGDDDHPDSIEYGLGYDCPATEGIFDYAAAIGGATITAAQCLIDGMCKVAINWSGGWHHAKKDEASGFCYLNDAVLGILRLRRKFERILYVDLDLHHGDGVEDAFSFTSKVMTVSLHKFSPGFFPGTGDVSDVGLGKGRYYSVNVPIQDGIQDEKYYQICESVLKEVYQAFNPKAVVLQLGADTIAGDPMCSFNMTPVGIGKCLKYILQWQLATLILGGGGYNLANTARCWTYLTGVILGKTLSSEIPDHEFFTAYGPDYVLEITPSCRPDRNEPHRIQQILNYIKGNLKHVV

[2] = biological target: T2, Histone deacetylase 7 (Homo sapiens) (UniProt Q8WUI4); experiment: Inhibition of HDAC7 (unknown origin) assessed as residual activity at 3.33 x 10^-6M (reference value: 102.66%); settings: dose 3.33 10^-6M
T2 sequence (whole entry): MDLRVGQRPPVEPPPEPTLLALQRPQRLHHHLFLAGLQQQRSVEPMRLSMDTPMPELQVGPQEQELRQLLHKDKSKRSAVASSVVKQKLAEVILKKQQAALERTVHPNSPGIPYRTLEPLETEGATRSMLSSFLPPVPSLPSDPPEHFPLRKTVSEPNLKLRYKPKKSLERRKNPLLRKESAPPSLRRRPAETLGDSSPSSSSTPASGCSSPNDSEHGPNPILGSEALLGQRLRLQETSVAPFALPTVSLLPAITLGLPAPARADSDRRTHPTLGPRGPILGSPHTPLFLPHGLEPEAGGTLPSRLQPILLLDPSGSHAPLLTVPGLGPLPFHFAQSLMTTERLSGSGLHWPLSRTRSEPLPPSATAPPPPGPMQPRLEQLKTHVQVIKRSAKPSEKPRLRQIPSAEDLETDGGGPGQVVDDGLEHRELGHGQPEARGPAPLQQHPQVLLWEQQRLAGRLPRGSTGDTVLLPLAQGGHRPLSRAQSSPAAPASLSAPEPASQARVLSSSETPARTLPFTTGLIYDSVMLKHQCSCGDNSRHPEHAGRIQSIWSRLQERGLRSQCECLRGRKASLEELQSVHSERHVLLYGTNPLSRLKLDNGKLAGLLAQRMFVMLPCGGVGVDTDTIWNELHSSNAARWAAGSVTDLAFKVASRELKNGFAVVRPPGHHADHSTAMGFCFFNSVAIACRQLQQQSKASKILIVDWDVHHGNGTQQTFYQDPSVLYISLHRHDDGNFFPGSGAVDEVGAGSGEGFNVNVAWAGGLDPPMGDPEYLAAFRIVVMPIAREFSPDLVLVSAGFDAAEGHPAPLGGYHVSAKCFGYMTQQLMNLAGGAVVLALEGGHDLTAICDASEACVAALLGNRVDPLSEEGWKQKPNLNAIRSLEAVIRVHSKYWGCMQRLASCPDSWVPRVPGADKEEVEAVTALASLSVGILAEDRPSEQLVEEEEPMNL

HL-60 [3] = experiment: Induction of apoptosis in human HL-60 cells assessed as nuclear fragmentation at 0.5 to 1 times IC50 by DAPI staining based microscopic analysis; format: functional, cell-based
Histone deacetylase 2 = Histone deacetylase 2 (Homo sapiens, UniProt Q92769); experiment: Inhibition of HDAC2 (unknown origin) assessed as residual activity at 1.1 x 10^-6M (reference value: 99.81%); settings: dose 1.1 10^-6M
Chain of Histone deacetylase 2 (Q92769 whole entry): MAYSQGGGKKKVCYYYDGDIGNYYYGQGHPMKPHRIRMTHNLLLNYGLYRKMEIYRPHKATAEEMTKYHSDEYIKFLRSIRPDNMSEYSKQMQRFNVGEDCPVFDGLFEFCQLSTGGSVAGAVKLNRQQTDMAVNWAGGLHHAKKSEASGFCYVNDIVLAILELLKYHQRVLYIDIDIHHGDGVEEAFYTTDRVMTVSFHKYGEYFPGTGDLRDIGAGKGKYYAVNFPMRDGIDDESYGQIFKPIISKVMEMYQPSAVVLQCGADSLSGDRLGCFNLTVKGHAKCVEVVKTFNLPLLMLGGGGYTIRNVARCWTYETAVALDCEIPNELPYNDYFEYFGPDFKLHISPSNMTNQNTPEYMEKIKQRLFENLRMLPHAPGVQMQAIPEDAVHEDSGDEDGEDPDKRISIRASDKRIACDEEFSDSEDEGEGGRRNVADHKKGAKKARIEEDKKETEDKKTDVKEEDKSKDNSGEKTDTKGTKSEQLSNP

[4] = biological target: T2, Histone deacetylase 7 (Homo sapiens); experiment: Inhibition of HDAC7 (unknown origin) assessed as residual activity at 1.37 x 10^-8M (reference value: 102.66%); settings: dose 1.37 10^-8M
HL-60 [5] = experiment: Induction of apoptosis in human HL-60 cells assessed as chromatin condensation at 0.5 to 1 times IC50 by DAPI staining based microscopic analysis; format: functional, cell-based
[6] = biological target: T3, Polyamine deacetylase HDAC10 (Homo sapiens) (UniProt Q969S8); experiment: Inhibition of HDAC10 (unknown origin) assessed as residual activity at 4.12 x 10^-8M (reference value: 101.54%); settings: dose 4.12 10^-8M
T3 sequence (whole entry): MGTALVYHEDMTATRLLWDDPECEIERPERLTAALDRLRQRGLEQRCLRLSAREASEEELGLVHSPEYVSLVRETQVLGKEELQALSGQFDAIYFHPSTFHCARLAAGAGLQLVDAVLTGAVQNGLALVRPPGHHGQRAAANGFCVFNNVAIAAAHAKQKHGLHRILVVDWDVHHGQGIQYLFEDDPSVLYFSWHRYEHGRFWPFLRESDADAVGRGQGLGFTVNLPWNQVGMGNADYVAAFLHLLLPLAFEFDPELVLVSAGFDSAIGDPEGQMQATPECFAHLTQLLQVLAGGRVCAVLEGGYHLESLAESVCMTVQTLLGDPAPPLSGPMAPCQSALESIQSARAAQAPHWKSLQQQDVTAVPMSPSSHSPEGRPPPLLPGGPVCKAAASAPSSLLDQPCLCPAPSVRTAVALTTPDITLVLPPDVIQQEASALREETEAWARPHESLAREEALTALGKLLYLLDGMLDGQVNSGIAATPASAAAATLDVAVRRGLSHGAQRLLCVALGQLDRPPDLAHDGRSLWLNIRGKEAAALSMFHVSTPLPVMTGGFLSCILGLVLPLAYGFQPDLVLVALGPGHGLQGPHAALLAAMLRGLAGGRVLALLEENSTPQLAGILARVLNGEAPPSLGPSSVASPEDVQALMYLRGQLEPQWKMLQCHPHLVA

[7] = biological target: Histone deacetylase 5 (Homo sapiens) (UniProt Q9UQL6); experiment: Inhibition of HDAC5 (unknown origin) assessed as residual activity at 5.08 x 10^-10M (reference value: 100%); settings: dose 5.08 10^-10M
Chain of Histone deacetylase 5 (Homo sapiens) (Q9UQL6 whole entry, the tested form may be a part): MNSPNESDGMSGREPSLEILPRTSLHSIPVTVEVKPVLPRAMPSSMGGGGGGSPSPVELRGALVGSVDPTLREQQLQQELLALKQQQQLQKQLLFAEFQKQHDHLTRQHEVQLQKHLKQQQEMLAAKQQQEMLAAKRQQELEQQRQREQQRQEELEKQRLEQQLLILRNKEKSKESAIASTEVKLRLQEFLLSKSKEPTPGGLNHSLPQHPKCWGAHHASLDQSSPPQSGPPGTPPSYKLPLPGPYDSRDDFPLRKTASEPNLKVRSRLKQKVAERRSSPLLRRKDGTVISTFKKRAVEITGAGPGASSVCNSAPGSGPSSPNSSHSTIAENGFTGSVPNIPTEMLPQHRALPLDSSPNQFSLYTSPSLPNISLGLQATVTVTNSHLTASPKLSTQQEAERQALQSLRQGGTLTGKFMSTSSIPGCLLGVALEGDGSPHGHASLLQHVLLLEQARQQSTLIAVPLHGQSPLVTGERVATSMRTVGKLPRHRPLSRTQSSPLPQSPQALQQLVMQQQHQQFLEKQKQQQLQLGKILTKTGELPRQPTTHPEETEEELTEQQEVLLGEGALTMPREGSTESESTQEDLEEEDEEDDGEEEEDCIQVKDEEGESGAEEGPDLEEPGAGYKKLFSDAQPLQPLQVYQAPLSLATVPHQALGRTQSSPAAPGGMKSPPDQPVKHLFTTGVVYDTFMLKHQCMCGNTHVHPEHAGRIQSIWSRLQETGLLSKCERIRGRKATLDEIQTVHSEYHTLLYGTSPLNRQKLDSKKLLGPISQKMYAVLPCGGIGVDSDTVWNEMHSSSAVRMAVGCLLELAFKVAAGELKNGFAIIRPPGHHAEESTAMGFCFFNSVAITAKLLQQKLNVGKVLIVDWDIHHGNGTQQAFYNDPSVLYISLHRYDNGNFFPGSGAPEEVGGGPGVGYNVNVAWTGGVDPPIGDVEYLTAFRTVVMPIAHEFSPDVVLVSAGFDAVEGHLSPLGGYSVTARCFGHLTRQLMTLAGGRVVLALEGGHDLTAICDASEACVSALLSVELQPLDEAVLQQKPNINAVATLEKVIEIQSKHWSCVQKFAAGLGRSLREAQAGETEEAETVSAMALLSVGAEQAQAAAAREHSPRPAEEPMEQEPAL

Histone deacetylase 3 = Histone deacetylase 3 (Homo sapiens, UniProt O15379); experiment: Inhibition of HDAC3 (unknown origin) using p53 residues 379 to 382 [RHKK(Ac)] as fluorogenic substrate assessed as residual activity at 4.12 x 10^-8M (reference value: 103.08%); settings: dose 4.12 10^-8M
Chain of Histone deacetylase 3 (O15379 whole entry, the tested form may be a part): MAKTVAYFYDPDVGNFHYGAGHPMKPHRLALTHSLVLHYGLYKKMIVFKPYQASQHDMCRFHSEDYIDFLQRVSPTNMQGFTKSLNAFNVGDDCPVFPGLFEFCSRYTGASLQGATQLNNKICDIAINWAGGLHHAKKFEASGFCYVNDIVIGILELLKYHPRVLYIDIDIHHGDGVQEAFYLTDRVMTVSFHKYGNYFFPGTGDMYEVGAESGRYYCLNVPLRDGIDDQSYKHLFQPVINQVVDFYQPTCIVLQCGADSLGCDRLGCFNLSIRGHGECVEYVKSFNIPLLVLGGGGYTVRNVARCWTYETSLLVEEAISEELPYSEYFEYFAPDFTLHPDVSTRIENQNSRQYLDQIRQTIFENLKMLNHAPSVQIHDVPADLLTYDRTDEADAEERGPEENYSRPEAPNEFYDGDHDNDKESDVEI

[8] = biological target: T2, Histone deacetylase 7 (Homo sapiens); experiment: Inhibition of HDAC7 (unknown origin) assessed as residual activity at 4.12 x 10^-8M (reference value: 102.66%); settings: dose 4.12 10^-8M
[9] = biological target: Histone deacetylase 5 (Homo sapiens) (UniProt Q9UQL6); experiment: Inhibition of HDAC5 (unknown origin) assessed as residual activity at 4.12 x 10^-8M (reference value: 100%); settings: dose 4.12 10^-8M
[10] = biological target: T1, Histone deacetylase 8 (Homo sapiens); experiment: Inhibition of HDAC8 (unknown origin) assessed as residual activity at 1.1 x 10^-6M (reference value: 100%); settings: dose 1.1 10^-6M

IC50 (MDA-MB-231): > 10 µM | Activity [1]: 105% | Activity [2]: 95.6% | Activity (Histone deacetylase 2): 12.8% | Activity [4]: 103% | Activity [6]: 102% | Activity [7]: 39% | Activity (Histone deacetylase 3): 91.1% | Activity [8]: 87% | Activity [9]: 93.1% | Activity [10]: 104%
SMILES: NC(=O)c1cccc2[nH]c(-c3ccc(NCc4ccc(C(=O)Nc5ccccc5N)cc4)cc3)nc12
Activity (HL-60 [3]): inactive | Activity (HL-60 [5]): inactive
